Source: patent US20220105113A1, “CYLODIMER OF DEHYDROSALICORTIN AND DERIVATIVES THEREOF ISOLATED FROM PLANT OF THE GENUS SALIX FOR USE IN CANCER THERAPY” (ROTHAMSTED RESEARCH LTD, priority 2019, published 2022)
≈ marks a conversion by molar mass, not a printed value. Where two headings read alike, the source gives them in different places.

Experiments:
Assay type in all cases: cell-based
[1] = test system: BT-474; assay: MTT dye reduction cell viability assay, BT-474 breast cancer cell line; settings: Homo sapiens, BT-474, MTT 120 h, read-out: Miyabeacin IC50
Procedure: (§1) The activity of miyabeacin was tested against a range of cancer cell lines including those in neuroblastoma and breast, oesophageal and ovarian cancers (Table 10).
(§2) The MYCN-amplified neuroblastoma cell line UKF-NB-3 was established from a stage 4 neuroblastoma patient (Kotchetkov et al., 2005). Also tested was the vincristine-resistant UKF-NB-3 sub-line UKF-NB-3^rVCR (Rothwell et al., 2010) (adapted to grow in the presence of vincristine 10 ng/mL). At a concentration of 20 μg/mL of miyabeacin, the cell viability, relative to non-treated cells, after 120 hours was 0% for UKF-NB-3 and 4.22±2.89% for the vincristine resistant UKF-NB-3^rVCR line. The oesophageal cancer cell line COLO-680N was obtained from ATCC (Manassas, Va., USA) and the ovarian cancer cell line COLO-704 from DSMZ (Braunschweig, Germany). All cell lines were propagated in Iscove's modified Dulbecco's medium (IMDM) supplemented with 10% FCS, 100 IU/ml penicillin and […] streptomycin at 37° C. […] Cell viability was determined by the 3-(4,5-dimethylthiazol-2-yl)-2,5-diphenyltetrazolium bromide (MTT) dye reduction assay after 120 h incubation as described previously (Michaelis et al., 2015). […] Plates were then read at 600 nm. The relative viability was determined as the relative reduction of the optical density relative to an untreated cell control (=100%).

[2] = test system: COLO-680N; assay: MTT dye reduction cell viability assay, COLO-680N oesophageal cancer cell line; settings: Homo sapiens
Procedure: as §1
(§3) The MYCN-amplified neuroblastoma cell line UKF-NB-3 was established from a stage 4 neuroblastoma patient (Kotchetkov et al., 2005). Also tested was the vincristine-resistant UKF-NB-3 sub-line UKF-NB-3^rVCR (Rothwell et al., 2010) (adapted to grow in the presence of vincristine 10 ng/mL). At a concentration of 20 μg/mL of miyabeacin, the cell viability, relative to non-treated cells, after 120 hours was 0% for UKF-NB-3 and 4.22±2.89% for the vincristine resistant UKF-NB-3^rVCR line. The oesophageal cancer cell line COLO-680N was obtained from ATCC (Manassas, Va., USA) and the ovarian cancer cell line COLO-704 from DSMZ (Braunschweig, Germany). All cell lines were propagated in Iscove's modified Dulbecco's medium (IMDM) supplemented with 10% FCS, 100 IU/ml penicillin and […] streptomycin at 37° C. Cells were routinely tested for mycoplasma contamination and authenticated by short tandem repeat profiling. Cell viability was determined by the 3-(4,5-dimethylthiazol-2-yl)-2,5-diphenyltetrazolium bromide (MTT) dye reduction assay after 120 h incubation as described previously (Michaelis et al., 2015). Briefly, 5000 cells (suspended in 100 μL IMDM supplemented with 10% FCS, 100 IU/ml penicillin and […] streptomycin) were incubated in 96-well plates at 37° C. and 5% CO2 in the absence or presence of varying compound concentrations for 120 h. Then, 25 μL of MTT solution ([…] dissolved in PBS) were added for 4 h. This was followed by the addition of […] of 20% sodium dodecyl sulphate (50:50 purified water/DMF) solution adjusted to pH 4.7 for an additional 4 h in order to lyse cells and dissolve formazan precipitates. Plates were then read at 600 nm. The relative viability was determined as the relative reduction of the optical density relative to an untreated cell control (=100%).

[3] = test system: COLO-704; assay: MTT dye reduction cell viability assay, COLO-704 ovarian cancer cell line
Procedure: as §1, §3

[4] = test system: EFO-21; assay: MTT dye reduction cell viability assay, EFO-21 ovarian cancer cell line; settings: Homo sapiens, EFO-21, MTT 120 h, read-out: Miyabeacin IC50
Procedure: as §1, §2

[5] = test system: MCF-7; assay: MTT dye reduction cell viability assay, MCF-7 breast cancer cell line; settings: Homo sapiens, MCF7, MCF-7, MTT 120 h, read-out: Miyabeacin IC50
Procedure: as §1, §2

[6] = test system: UKF-NB-3; assay: MTT dye reduction cell viability assay, UKF-NB-3 neuroblastoma cell line
Procedure: as §1, §3

[7] = test system: UKF-NB-3^rVCR; assay: MTT dye reduction cell viability assay, vincristine-resistant UKF-NB-3 sub-line; settings: 20 μg/mL, after 120 hours, vincristine resistant UKF-NB-3^rVCR; read-out: cell viability, relative to non-treated cells
Procedure: (§4) The MYCN-amplified neuroblastoma cell line UKF-NB-3 was established from a stage 4 neuroblastoma patient (Kotchetkov et al., 2005). Also tested was the vincristine-resistant UKF-NB-3 sub-line UKF-NB-3^rVCR (Rothwell et al., 2010) (adapted to grow in the presence of vincristine 10 ng/mL). At a concentration of 20 μg/mL of miyabeacin, the cell viability, relative to non-treated cells, after 120 hours was 0% for UKF-NB-3 and 4.22±2.89% for the vincristine resistant UKF-NB-3^rVCR line. The oesophageal cancer cell line COLO-680N was obtained from ATCC (Manassas, Va., USA) and the ovarian cancer cell line COLO-704 from DSMZ (Braunschweig, Germany). All cell lines were propagated in Iscove's modified Dulbecco's medium (IMDM) supplemented with 10% FCS, 100 IU/ml penicillin and […] streptomycin at 37° C. Cells were routinely tested for mycoplasma contamination and authenticated by short tandem repeat profiling. Cell viability was determined by the 3-(4,5-dimethylthiazol-2-yl)-2,5-diphenyltetrazolium bromide (MTT) dye reduction assay after 120 h incubation as described previously (Michaelis et al., 2015). […] Plates were then read at 600 nm. The relative viability was determined as the relative reduction of the optical density relative to an untreated cell control (=100%).

[8] = test system: UKF-NB-3, COLO-680N and COLO-704; assay: Replicated IC50 determination (MTT) on three selected lines; settings: range of means over UKF-NB-3, COLO-680N and COLO-704
Procedure: as §4

IC50 [1]: 27 µg/mL (≈ 32 µM) | IC50 ([2]; expt 1, read-out: miyabeacin IC50 concentration expt 1): 5.08 µg/mL | IC50 ([2]; expt 2, read-out: miyabeacin IC50 concentration expt 2): 15.1 µg/mL | IC50 ([2]; expt 3, read-out: miyabeacin IC50 concentration expt 3): 51.5 µg/mL | IC50 ([2]; mean of 3 expts, read-out: IC50 mean): 28.3 µM | IC50 ([2]; mean of 3 expts, read-out: miyabeacin IC50 concentration mean): 23.9 µg/mL | IC50 ([2]; oesophageal, MTT 120 h, read-out: Miyabeacin IC50): 5.08 µg/mL | IC50 ([3]; COLO-704, expt 1, read-out: miyabeacin IC50 concentration expt 1): 20.2 µg/mL | IC50 ([3]; COLO-704, expt 2, read-out: miyabeacin IC50 concentration expt 2): 32.4 µg/mL | IC50 ([3]; COLO-704, expt 3, read-out: miyabeacin IC50 concentration expt 3): 50.8 µg/mL | IC50 ([3]; COLO-704, mean of 3 expts, read-out: IC50 mean): 40.2 µM | IC50 ([3]; COLO-704, mean of 3 expts, read-out: miyabeacin IC50 concentration mean): 34.5 µg/mL | IC50 ([3]; ovarian, COLO-704, MTT 120 h, read-out: Miyabeacin IC50): 20.2 µg/mL | IC50 [4]: 12.7 µg/mL (≈ 15 µM) | IC50 [5]: 2.19 µg/mL (≈ 2.59 µM) | IC50 ([6]; UKF-NB-3, expt 1, read-out: miyabeacin IC50 concentration expt 1): 7.12 µg/mL | IC50 ([6]; UKF-NB-3, expt 2, read-out: miyabeacin IC50 concentration expt 2): 21 µg/mL | IC50 ([6]; UKF-NB-3, expt 3, read-out: miyabeacin IC50 concentration expt 3): 15.3 µg/mL | IC50 ([6]; UKF-NB-3, mean of 3 expts, read-out: IC50 mean): 17.2 µM | IC50 ([6]; UKF-NB-3, mean of 3 expts, read-out: miyabeacin IC50 concentration mean): 14.5 µg/mL | IC50 ([6]; neuroblastoma, UKF-NB-3, MTT 120 h, read-out: Miyabeacin IC50): 7.12 µg/mL | IC50 [8]: 17.2 to 40.2 µM
SMILES: O=C(OCc1ccccc1O[C@H]1OC(CO)[C@H](O)C(O)C1O)[C@@]1(O)C(=O)C2C=CC1C1C2C=CC(=O)[C@]1(O)C(=O)OCc1ccccc1O[C@H]1OC(CO)[C@H](O)C(O)C1O (stereo partly drawn) [miyabeacin]
viability at 20 µg/mL ([6]; 20 μg/mL, after 120 hours, UKF-NB-3, read-out: cell viability, relative to non-treated cells): 0% | viability at 20 µg/mL [7]: 4.22 ± 2.89%
